Experimental data taken from US4330532A, “Angiotensin-II analogues with antagonizing effects, containing an α-hydroxycarboxylic acid residue in position 8, and a process for the preparation thereof” (Richter Gedeon Vegyeszeti Gyar Rt., priority 1980, dated 1982).

System: hypertension provoked by angiotensin-II (Hypertensin (CIBA) infusion)
Experiment: Antagonistic (hypotensive) effect on Hypertensin-infused narcotized male cats
Assay type: in vivo, cat
Protocol: The antagonistic effects of the new compounds of the formula (I) were investigated on narcotized male cats. After treating the animals with a ganglion blocking agent and bisecting the cervical vagus nerves on both sides, the animals were treated with an infusion of Hypertensin (CIBA) at a rate of 0.5 μg/kg/min. When the blood pressure of the animals reached a steady, increased level, the substance to be tested was administered either intravenously or subcutaneously in physiological saline solution or as an aqueous solution which also contained a carrier. The blood pressure drop was measured in mm Hg units, and the extent of decrease was expressed in percents related to the value before treatment. The statistical evaluation was performed on the basis of the blood pressure differences, by Student's single sample "t" test. The term "duration of effect" denotes the period elapsed until the observation of the last still significant (p±5%) blood pressure difference.

[1] = s.c., carboxymethyl cellulose (CMC) carrier, dose 100 μg/kg
[2] = s.c., carboxymethyl cellulose (CMC) carrier, dose 200 μg/kg
[3] = s.c., gelatine carrier, dose 200 μg/kg
[4] = s.c., physiological saline, dose 100 μg/kg
[5] = s.c., physiological saline, dose 200 μg/kg

With CNCC(=O)N[C@@H](CCCN=C(N)N)C(=O)N[C@H](C(=O)N[C@@H](Cc1ccc(O)cc1)C(=O)N[C@H](C(=O)N[C@@H](Cc1cnc[nH]1)C(=O)N1CCC[C@H]1C(=O)N[C@@H](C)C(=O)O)C(C)C)C(C)C [Saralasin, (Sar^1, Ala^8)-angiotensin-II] the “blood pressure drop, extent of decrease in percents related to the value before treatment” value (i.v., dose 10 μg/kg) was 32%, the duration of effect (i.v., dose 10 μg/kg) was 15 min and the “blood pressure drop, extent of decrease in percents related to the value before treatment” value [1] was 23%. The duration of effect [1] was 45 min, the “blood pressure drop, extent of decrease in percents related to the value before treatment” value [2] was 28% and the duration of effect [2] was 90 min. The “blood pressure drop, extent of decrease in percents related to the value before treatment” value [3] was 23%, the duration of effect [3] was “.phi” and the “blood pressure drop, extent of decrease in percents related to the value before treatment” value [4] was 29%. The duration of effect [4] was 60 min, the “blood pressure drop, extent of decrease in percents related to the value before treatment” value [5] was 24% and the duration of effect [5] was 45 min.
